These results are taken from patent publication EP4644396A1 (Visionpharma (Nantong) Co., Ltd, priority 2022, dated 2024).

Like-named read-outs stand apart in the source and are kept apart here.

In the test the target is T1, human TLR8 (Homo sapiens, UniProt Q9NR97).
T1 construct: expressed in transfected cells
T1 sequence (Q9NR97 27-1041): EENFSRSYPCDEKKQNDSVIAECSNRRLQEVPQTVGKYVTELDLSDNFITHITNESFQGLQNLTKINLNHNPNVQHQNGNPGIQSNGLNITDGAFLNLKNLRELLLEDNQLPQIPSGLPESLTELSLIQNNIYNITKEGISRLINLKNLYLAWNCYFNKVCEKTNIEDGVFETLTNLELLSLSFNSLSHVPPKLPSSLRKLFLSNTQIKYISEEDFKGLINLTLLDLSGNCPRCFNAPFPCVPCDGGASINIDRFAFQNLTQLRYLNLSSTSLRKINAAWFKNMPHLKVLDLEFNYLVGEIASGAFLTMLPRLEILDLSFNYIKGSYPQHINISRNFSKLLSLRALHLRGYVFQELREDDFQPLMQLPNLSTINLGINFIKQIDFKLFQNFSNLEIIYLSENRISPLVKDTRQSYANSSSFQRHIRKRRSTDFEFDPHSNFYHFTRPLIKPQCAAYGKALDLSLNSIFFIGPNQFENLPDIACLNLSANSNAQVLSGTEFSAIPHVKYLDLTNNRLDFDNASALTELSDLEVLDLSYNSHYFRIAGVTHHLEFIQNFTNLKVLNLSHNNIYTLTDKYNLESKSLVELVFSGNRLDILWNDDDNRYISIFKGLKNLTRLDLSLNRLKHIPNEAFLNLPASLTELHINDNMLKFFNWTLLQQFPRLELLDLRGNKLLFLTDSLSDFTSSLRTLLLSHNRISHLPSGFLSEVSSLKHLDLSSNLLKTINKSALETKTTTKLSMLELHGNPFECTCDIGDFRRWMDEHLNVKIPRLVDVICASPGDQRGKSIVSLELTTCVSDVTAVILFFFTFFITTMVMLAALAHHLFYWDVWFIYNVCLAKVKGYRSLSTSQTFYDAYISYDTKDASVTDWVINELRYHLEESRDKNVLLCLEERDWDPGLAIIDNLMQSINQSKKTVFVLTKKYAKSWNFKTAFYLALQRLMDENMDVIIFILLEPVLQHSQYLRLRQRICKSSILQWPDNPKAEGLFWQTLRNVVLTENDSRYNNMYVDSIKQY
The test can be described thus: HEK-Blue hTLR8 SEAP reporter gene inhibition assay. The test is classed as cell-based. As to the method:
HEK-Blue cells with stable expression of human TLR7 or TLR8 were used in the evaluation of inhibitory activity of compounds in the present invention against TLR7 or TLR8, by using its ability to induce the SEAP reporting gene under the control of the fusion of IFN-β minimum promoters into five NF-κB and ap-1 binding sites, as follows: hTLR7 HEK-Blue cells (Invivogen, 80, 000 cells per well) or hTLR8 HEK-Blue cells (60, 000 cells per well) were added to a 96-well cell culture plate. A solution of the testing compounds were added to each well, with the final concentration of tested compounds in the medium ranged from 0.001 to 36 µM and the culture was incubated for 15 minutes. M5049 was used as positive controls in the testing.
Then a TLR7 ligand (Gardiquimod, purchased from MedChemExpress, with final concentration of ligand in cell culture medium kept at 10 µM) or a TLR8 ligand (purchased from MedChemExpress with final concentration in cell culture media at 10 µM) and the culture was incubated for 20 hours. According to the manufacturer's instructions, a HEK-Blue reagent Quanti-blue (Invivogen) was used to detect the SEAP levels in cell cultures. The half […] concentration or IC50 was calculated by using GraphPad Prism. […] Table 1: Activities of examples in this invention to hTLR7/8 in HEK-Blue Cells

Setting [1] is: hTLR8 HEK-Blue cells, TLR8 ligand 10 µM, 20 hours, SEAP by Quanti-blue, class symbols, read-out: HEK-Blue hTLR8 IC50.

Regarding “4-((4R,9S)-4,9-dimethyl-8-((2R,6R)-6-methylmorpholine-2-carbonyl)-3,4,7,8,9,10-hexahydropyrido[3',4':3,4]pyrazolo[1,5-a]pyrazin-2(1H)-yl)-3-fluoropyrazolo[1,5-a]pyridine-7-carbonitrile [Example I-122]”, under setting [1], the IC50 is under 0.1 µM.

Consider “4-((4R,9S)-8-(L-prolyl)-4,9-dimethyl-3,4,7,8,9,10-hexahydropyrido[3',4':3,4]pyrazolo [1,5-a]pyrazin-2(1H)-yl)-3-fluoropyrazolo[1,5-a]pyridine-7-carbonitrile [Example I-114]”, for which, under setting [1], the IC50 is under 0.1 µM.

As for `CCC1CN(c2ccc(C#N)n3ncc(F)c23)Cc2c3c(nn21)CNCC3` (stereo not drawn) [Example I-17, 4-(4-Ethyl-3,4,7,8,9,10-hexahydropyrido[3',4':3,4]pyrazolo[1,5-a]pyrazin-2(1H)-yl)-3-fluoropyrazolo[1,5-a]pyridine-7-carbonitrile], the IC50 under setting [1] was over 0.1 µM.

For the molecule `C[C@@H]1CN(c2ccc(C#N)n3ncc(F)c23)Cc2c3c(nn21)CN(CCO)CC3` [Example I-19, (R)-3-Fluoro-4-(8-(2-hydroxyethyl)-4-methyl-3,4,7,8,9,10-hexahydropyrido[3',4':3,4]pyrazolo[1,5-a]pyrazin-2(1H)-yl)pyrazolo[1,5-a]pyridine-7-carbonitrile], the IC50 under setting [1] is over 0.1 µM.

For the molecule `C[C@@H]1CN(c2ccc(C#N)n3ncc(F)c23)Cc2c3c(nn21)CC(N)CC3` (stereo partly drawn) [Example I-20, 4-((4R)-8-amino-4-methyl-3,4,7,8,9,10-hexahydropyrazino[1,2-b]indazol-2(1H)-yl)-3-fluoropyrazolo[1,5-a]pyridine-7-carbonitrile], under setting [1], the IC50 is under 0.1 µM.

As for `C[C@@H]1CN(c2ccc(C#N)n3ncc(F)c23)Cc2c3c(nn21)CN(Cc1ccn[nH]1)CC3` [Example I-29], the IC50 (HEK-Blue hTLR8 IC50 (µM)) is under 0.1 µM.

With `C[C@@H]1CN(c2ccc(C#N)n3ncc(F)c23)Cc2c3c(nn21)CC(N1CCOCC1)CC3` (stereo partly drawn) [Example I-31, 3-Fluoro-4-((4R)-4-methyl-8-morpholino-3,4,7,8,9,10-hexahydropyrazino[1,2-b]indazol-2(1H)-yl)pyrazolo[1,5-a]pyridine-7-carbonitrile], the IC50 under setting [1] was under 0.1 µM.

`C[C@@H]1CN(c2ccc(C#N)n3ncc(F)c23)Cc2c3c(nn21)CN(C1CCNCC1O)C(=O)C3` (stereo partly drawn) [Example I-32, 3-Fluoro-4-((4R)-8-(3-hydroxypiperidin-4-yl)-4-methyl-9-oxo-3,4,7,8,9,10-hexahydropyrido[3',4':3,4]pyrazolo[1,5-a]pyrazin-2(1H)-yl)pyrazolo[1,5-a]pyridine-7-carbonitrile]: the IC50 under setting [1] was under 0.1 µM.

For `C[C@@H]1CN(c2ccc(C#N)n3ncc(F)c23)Cc2c3c(nn21)C(CO)CNC3` (stereo partly drawn) [Example I-35, 3-Fluoro-4-((7R)-4-(hydroxymethyl)-7-methyl-1,3,4,7,8,10-hexahydropyrido[4',3':3,4]pyrazolo[1,5-a]pyrazin-9(2H)-yl)pyrazolo[1,5-a]pyridine-7-carbonitrile], the half-inhibitory concentration (IC50) under setting [1] is under 0.1 µM.

Consider `C[C@@H]1CN(c2ccc(C#N)n3ncc(F)c23)Cc2c3c(nn21)CC(CO)NC3` (stereo partly drawn) [Example I-36, 3-Fluoro-4-((7R)-3-(hydroxymethyl)-7-methyl-1,3,4,7,8,10-hexahydropyrido[4',3':3,4]pyrazolo[1,5-a]pyrazin-9(2H)-yl)pyrazolo[1,5-a]pyridine-7-carbonitrile], for which the IC50 under setting [1] was under 0.1 µM.

Turning to `C[C@@H]1CN(c2ccc(C#N)n3ncc(F)c23)Cc2c3c(nn21)CC(N)C(O)C3` (stereo partly drawn) [Example I-37, 4-((4R)-8-amino-9-hydroxy-4-methyl-3,4,7,8,9,10-hexahydropyrazino [1,2-b]indazol-2(1H)-yl)-3-fluoropyrazolo[1,5-a]pyridine-7-carbonitrile], under setting [1], the IC50 is under 0.1 µM.

`C[C@@H]1CN(c2ccc(C#N)n3ncc(F)c23)Cc2c3c(nn21)CNCC3O` (stereo partly drawn) [Example I-38, 3-Fluoro-4-((4R)-10-hydroxy-4-methyl-3,4,7,8,9,10-hexahydropyrido[3',4':3,4]pyrazolo[1,5-a]pyrazin-2(1H)-yl)pyrazolo[1,5-a]pyridine-7-carbonitrile]: under setting [1], the IC50 is over 0.1 µM.

Consider `C[C@@H]1CN(c2ccc(C#N)n3ncc(F)c23)Cc2c3c(nn21)CC1CCC3N1` (stereo partly drawn) [Example I-44, 3-Fluoro-4-((4R)-4-methyl-1,3,4,7,8,9,10,11-octahydro-2H-8,11-epiminocyclohepta [3,4]pyrazolo[1,5-a]pyrazin-2-yl)pyrazolo[1,5-a]pyridine-7-carbonitrile], for which the IC50 under setting [1] is under 0.1 µM.

Consider `C[C@@H]1CN(c2ccc(C#N)n3ncc(F)c23)Cc2c3c(nn21)CCNC3CO` (stereo partly drawn) [Example I-46, 3-fluoro-4-((7R)-1-(hydroxymethyl)-7-methyl-1,3,4,7,8,10-hexahydropyrido[4',3':3,4]pyrazolo[1,5-a]pyrazin-9(2H)-yl)pyrazolo[1,5-a]pyridine-7-carbonitrile], for which the IC50 under setting [1] was under 0.1 µM.

Take `C[C@@H]1CN(c2ccc(C#N)n3ncc(F)c23)Cc2c3c(nn21)CC(CN1CCOCC1)NC3` (stereo partly drawn) [Example I-47, 3-Fluoro-4-((7R)-7-methyl-3-(morpholinomethyl)-1,3,4,7,8,10-hexahydropyrido [4',3':3,4]pyrazolo[1,5-a]pyrazin-9(2H)-yl)pyrazolo[1,5-a]pyridine-7-carbonitrile]: the IC50 under setting [1] was over 0.1 µM.

As to `CC(C)CC1NCCc2c1nn1c2CN(c2ccc(C#N)n3ncc(F)c23)C[C@H]1C` (stereo partly drawn) [Example I-69, 3-Fluoro-4-((4R)-7-isobutyl-4-methyl-3,4,7,8,9,10-hexahydropyrido[3',4':3,4]pyrazolo [1,5-a]pyrazin-2(1H)-yl)pyrazolo[1,5-a]pyridine-7-carbonitrile], the IC50 under setting [1] was under 0.1 µM.

As to `CC(C)C1NCCc2c1nn1c2CN(c2ccc(C#N)n3ncc(F)c23)C[C@H]1C` (stereo partly drawn) [Example I-70, 3-Fluoro-4-((4R)-7-isopropyl-4-methyl-3,4,7,8,9,10-hexahydropyrido[3',4':3,4]pyrazolo[1,5-a]pyrazin-2(1H)-yl)pyrazolo[1,5-a]pyridine-7-carbonitrile], the IC50 under setting [1] is under 0.1 µM.

Turning to `C[C@@H]1CN(c2ccc(C#N)n3ncc(F)c23)Cc2c3c(nn21)CC(C)(N)CC3` (stereo partly drawn) [Example I-71, 4-((4R)-8-amino-4,8-dimethyl-3,4,7,8,9,10-hexahydropyrazino[1,2-b]indazol-2(1H)-yl)-3-fluoropyrazolo[1,5-a]pyridine-7-carbonitrile], under setting [1], the IC50 is under 0.1 µM.

On to `C[C@@H]1CN(c2ccc(C#N)n3ncc(F)c23)Cc2c3c(nn21)CC(C)(C)NC3` [Example I-78, (R)-3-Fluoro-4-(3,3,7-trimethyl-1,3,4,7,8,10-hexahydropyrido[4',3':3,4]pyrazolo [1,5-a]pyrazin-9(2H)-yl)pyrazolo[1,5-a]pyridine-7-carbonitrile], for which, under setting [1], the IC50 is under 0.1 µM.

As to `COC[C@@H]1CCCN1CC(=O)N1Cc2nn3c(c2C[C@@H]1C)CN(c1ccc(C#N)n2ncc(F)c12)C[C@H]3C` [Example I-109, 3-Fluoro-4-((4R,9S)-8-(2-((S)-2-(methoxymethyl)pyrrolidin-1-yl)acetyl)-4,9-dimethyl-3,4,7,8,9,10-hexahydropyrido[3',4':3,4]pyrazolo[1,5-a]pyrazin-2(1H)-yl)pyrazolo[1,5-a]pyridine-7-carbonitrile], the IC50 under setting [1] was under 0.1 µM.

As to `C[C@@H]1CN(c2ccc(C#N)n3ncc(F)c23)Cc2c3c(nn21)CN(CC(=O)N1C[C@H](C)N[C@@H](C)C1)[C@@H](C)C3` [Example I-145, 4-((4R,9S)-8-(2-((3S,5S)-3,5-dimethylpiperazin-1-yl)-2-oxoethyl)-4,9-dimethyl-3,4,7,8,9,10-hexahydropyrido[3',4':3,4]pyrazolo[1,5-a]pyrazin-2(1H)-yl)-3-fluoropyrazolo[1,5-a]pyridine-7-carbonitrile], under setting [1], the IC50 was under 0.1 µM.
